Assay results taken from PMC10382584, “Macrocyclization of linear molecules by deep learning to facilitate macrocyclic drug candidates discovery” (Nature Communications, 2023).

What was measured:
Experiment in all cases: biochemical
Parameters in all cases: DiscoveRx KINOMEscan competition binding, percent of DMSO control signal at 100 nM
Conditions in all cases: read-out: Fig. 4a / Percent Control / Compound 1; percent of DMSO control, competition binding
MTOR = MTOR (Homo sapiens, UniProt P42345)
SGK = molecular target: T1, SGK (Homo sapiens, UniProt O00141)
T1 construct: gene SGK1
T1 sequence (O00141 whole entry): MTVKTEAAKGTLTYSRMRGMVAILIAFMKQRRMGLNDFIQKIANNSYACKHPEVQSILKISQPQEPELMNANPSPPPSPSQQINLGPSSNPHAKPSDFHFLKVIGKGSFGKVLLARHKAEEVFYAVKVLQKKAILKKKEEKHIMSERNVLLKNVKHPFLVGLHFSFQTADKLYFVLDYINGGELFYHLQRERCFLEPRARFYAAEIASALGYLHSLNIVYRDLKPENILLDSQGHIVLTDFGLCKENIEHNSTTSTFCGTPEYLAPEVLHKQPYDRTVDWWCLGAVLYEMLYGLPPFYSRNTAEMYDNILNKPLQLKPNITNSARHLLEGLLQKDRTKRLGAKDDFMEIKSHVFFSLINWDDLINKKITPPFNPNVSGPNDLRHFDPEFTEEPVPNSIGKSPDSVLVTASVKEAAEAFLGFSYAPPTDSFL

AMPK-alpha1 = molecular target: T2, AMPK-alpha1 (Homo sapiens, UniProt Q13131)
T2 construct: gene PRKAA1

SIK2 = SIK2 (Homo sapiens, UniProt Q9H0K1)
CTK = molecular target: T3, CTK (Homo sapiens, UniProt P42679)
T3 construct: gene MATK

PIK3CG = PIK3CG (Homo sapiens, UniProt P48736)
MYLK2 = MYLK2 (Homo sapiens, UniProt Q9H1R3)
BLK = BLK (Homo sapiens, UniProt P51451)
Sequence of BLK (P51451 whole entry): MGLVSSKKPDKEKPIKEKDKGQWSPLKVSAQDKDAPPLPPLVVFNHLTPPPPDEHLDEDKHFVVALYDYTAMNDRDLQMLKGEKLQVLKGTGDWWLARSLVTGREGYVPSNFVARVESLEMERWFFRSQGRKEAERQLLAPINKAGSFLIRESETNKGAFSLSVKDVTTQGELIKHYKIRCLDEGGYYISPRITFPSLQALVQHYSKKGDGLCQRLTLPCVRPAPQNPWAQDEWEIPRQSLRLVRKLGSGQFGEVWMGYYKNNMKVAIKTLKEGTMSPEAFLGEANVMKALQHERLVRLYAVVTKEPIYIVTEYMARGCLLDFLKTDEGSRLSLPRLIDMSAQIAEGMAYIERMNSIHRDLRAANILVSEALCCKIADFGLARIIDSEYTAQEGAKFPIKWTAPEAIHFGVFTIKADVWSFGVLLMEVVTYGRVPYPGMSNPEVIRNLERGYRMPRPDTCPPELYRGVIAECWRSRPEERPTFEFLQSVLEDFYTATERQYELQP

EGFR(E746-A750del) = EGFR(E746-A750del) (Homo sapiens, UniProt P00533, DEL746-750)
[1] = molecular target: T4, ABL1(F317L)-phosphorylated (Homo sapiens, UniProt P00519, F317L)
T4 construct: phosphorylated

FLT4 = FLT4 (Homo sapiens, UniProt P35916)
HIPK1 = HIPK1 (Homo sapiens, UniProt Q86Z02)
Sequence of HIPK1 (Q86Z02 whole entry): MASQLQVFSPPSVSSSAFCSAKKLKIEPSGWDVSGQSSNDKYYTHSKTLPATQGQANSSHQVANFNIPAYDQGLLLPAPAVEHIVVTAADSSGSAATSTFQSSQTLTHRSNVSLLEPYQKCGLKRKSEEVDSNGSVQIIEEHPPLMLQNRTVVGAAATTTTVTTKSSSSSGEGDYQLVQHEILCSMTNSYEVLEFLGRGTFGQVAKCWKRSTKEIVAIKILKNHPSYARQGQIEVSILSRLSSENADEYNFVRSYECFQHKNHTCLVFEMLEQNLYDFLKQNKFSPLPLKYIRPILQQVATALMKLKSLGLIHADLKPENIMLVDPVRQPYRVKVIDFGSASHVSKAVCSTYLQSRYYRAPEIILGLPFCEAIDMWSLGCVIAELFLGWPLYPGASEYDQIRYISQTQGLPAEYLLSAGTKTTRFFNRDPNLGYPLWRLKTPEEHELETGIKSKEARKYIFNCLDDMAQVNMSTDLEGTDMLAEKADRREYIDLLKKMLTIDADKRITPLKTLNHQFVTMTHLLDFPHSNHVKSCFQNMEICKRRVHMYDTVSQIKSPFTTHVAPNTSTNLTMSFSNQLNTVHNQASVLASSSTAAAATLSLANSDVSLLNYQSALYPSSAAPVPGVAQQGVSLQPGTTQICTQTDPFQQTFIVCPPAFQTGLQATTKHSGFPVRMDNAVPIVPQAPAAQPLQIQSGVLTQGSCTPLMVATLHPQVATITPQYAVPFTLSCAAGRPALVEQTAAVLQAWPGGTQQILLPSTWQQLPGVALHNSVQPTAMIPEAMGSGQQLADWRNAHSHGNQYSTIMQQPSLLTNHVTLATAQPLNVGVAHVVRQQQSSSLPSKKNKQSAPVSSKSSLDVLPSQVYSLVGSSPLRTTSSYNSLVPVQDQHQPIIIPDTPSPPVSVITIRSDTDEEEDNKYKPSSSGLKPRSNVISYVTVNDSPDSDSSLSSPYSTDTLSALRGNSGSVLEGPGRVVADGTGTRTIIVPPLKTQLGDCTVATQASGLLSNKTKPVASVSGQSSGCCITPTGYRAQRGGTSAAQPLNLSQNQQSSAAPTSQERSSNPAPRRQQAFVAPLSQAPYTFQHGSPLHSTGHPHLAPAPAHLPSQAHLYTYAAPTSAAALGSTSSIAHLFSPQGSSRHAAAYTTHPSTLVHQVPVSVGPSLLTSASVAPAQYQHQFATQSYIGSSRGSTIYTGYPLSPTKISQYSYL

PRKCD = PRKCD (Homo sapiens, UniProt Q05655)
PDGFRB = PDGFRB (Homo sapiens, UniProt P09619)
Sequence of PDGFRB (P09619 whole entry): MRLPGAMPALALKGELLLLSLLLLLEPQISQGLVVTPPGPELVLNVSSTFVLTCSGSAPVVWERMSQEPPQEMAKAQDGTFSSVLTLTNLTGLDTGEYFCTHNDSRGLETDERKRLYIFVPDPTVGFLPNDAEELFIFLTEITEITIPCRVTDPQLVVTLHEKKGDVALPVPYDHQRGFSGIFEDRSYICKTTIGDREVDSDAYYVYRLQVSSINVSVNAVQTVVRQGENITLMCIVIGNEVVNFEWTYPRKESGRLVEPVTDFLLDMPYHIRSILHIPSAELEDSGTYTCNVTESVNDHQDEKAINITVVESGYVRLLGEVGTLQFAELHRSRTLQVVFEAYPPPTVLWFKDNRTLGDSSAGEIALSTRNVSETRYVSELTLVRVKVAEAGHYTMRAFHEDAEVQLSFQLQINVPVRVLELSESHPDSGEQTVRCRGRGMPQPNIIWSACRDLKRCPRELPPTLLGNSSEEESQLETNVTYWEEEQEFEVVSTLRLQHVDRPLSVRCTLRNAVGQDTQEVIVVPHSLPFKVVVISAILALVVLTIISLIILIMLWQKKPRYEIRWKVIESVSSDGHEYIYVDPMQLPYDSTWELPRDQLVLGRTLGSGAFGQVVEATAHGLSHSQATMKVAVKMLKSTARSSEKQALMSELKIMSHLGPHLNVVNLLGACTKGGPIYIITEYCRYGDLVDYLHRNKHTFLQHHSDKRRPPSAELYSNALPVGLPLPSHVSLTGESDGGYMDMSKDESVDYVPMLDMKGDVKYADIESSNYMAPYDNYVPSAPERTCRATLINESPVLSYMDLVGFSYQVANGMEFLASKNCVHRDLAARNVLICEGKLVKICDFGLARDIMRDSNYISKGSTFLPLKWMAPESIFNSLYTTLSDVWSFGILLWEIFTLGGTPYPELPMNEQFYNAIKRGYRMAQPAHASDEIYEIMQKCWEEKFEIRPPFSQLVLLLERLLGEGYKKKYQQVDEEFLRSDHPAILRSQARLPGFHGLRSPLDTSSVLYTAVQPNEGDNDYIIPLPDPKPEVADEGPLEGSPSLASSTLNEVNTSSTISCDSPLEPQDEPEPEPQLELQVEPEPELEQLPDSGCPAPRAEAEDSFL

MAP3K4 = MAP3K4 (Homo sapiens, UniProt Q9Y6R4)
SRC = SRC (Homo sapiens, UniProt P12931)
PIK3C2B = PIK3C2B (Homo sapiens, UniProt O00750)
PCTK3 = molecular target: T5, PCTK3 (Homo sapiens, UniProt Q07002)
T5 construct: gene CDK18
T5 sequence (Q07002 whole entry): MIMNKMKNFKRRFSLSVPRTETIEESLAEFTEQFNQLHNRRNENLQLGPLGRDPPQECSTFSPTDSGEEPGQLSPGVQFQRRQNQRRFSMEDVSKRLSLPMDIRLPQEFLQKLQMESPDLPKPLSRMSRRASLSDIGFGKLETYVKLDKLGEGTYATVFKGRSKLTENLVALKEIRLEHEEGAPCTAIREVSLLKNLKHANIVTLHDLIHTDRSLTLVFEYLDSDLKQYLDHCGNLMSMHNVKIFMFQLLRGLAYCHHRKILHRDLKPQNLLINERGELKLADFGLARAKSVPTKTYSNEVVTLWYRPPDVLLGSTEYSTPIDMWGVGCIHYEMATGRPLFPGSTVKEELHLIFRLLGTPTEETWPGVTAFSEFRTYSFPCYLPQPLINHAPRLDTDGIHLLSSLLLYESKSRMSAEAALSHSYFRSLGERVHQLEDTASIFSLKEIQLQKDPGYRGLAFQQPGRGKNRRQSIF

TEC = TEC (Homo sapiens, UniProt P42680)
STK39 = STK39 (Homo sapiens, UniProt Q9UEW8)
FGFR4 = FGFR4 (Homo sapiens, UniProt P22455)
Sequence of FGFR4 (P22455 whole entry): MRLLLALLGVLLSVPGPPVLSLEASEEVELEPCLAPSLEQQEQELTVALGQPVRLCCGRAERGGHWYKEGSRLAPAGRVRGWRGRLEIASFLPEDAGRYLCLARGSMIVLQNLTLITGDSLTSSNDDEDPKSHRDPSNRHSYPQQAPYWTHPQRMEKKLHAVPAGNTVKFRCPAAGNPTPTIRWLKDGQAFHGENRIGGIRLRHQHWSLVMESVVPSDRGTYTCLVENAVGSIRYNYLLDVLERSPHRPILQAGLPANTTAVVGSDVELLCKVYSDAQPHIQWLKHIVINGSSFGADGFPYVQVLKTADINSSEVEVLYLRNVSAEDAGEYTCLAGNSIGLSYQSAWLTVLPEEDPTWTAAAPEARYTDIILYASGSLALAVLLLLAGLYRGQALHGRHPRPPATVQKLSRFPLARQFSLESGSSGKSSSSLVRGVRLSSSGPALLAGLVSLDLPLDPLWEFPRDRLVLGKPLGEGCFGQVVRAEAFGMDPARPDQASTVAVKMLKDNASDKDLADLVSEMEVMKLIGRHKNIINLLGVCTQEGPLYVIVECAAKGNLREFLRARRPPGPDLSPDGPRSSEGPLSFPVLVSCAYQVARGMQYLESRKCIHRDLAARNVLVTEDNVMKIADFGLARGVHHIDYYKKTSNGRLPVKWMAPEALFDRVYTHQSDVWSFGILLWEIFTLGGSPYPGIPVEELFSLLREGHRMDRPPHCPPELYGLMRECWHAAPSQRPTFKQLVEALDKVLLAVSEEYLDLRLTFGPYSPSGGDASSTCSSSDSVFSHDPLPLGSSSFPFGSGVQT

SLK = SLK (Homo sapiens, UniProt Q9H2G2)
CLK1 = CLK1 (Homo sapiens, UniProt P49759)
Sequence of CLK1 (P49759 whole entry): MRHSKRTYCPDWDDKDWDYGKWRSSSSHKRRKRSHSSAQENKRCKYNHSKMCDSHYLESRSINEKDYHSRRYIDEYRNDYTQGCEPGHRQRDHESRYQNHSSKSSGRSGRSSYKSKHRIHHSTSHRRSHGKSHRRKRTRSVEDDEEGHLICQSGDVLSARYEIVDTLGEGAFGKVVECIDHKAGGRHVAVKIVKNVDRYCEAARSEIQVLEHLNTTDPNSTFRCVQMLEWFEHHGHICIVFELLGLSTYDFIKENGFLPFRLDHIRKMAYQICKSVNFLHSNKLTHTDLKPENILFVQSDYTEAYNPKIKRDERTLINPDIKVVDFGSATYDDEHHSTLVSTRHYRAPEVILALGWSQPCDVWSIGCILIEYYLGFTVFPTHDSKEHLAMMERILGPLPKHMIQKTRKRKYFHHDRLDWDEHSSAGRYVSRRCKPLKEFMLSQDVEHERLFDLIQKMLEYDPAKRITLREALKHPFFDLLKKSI

SNARK = molecular target: T6, SNARK (Homo sapiens, UniProt Q9H093)
T6 construct: gene NUAK2

MKNK2 = MKNK2 (Homo sapiens, UniProt Q9HBH9)
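Further: KINOMEscan kinase panel binding assay, signal normalized between DMSO as 100% and a positive control compound as 0%.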

With `Cc1cnc2nc1Nc1cccc(c1)COCc1cc(ccc1OCCN1CCCC1)N2` [Compound 1] the remaining binding at 0.1 µM (MTOR) was 82%, the remaining binding at 0.1 µM (SGK) was 75% and the remaining binding at 0.1 µM (AMPK-alpha1) was 100%. The remaining binding at 0.1 µM (SIK2) was 94%, the remaining binding at 0.1 µM (CTK) was 97% and the remaining binding at 0.1 µM (PIK3CG) was 69%. It also gave a remaining binding at 0.1 µM (MYLK2) of 100%, a remaining binding at 0.1 µM (BLK) of 76% and a remaining binding at 0.1 µM (EGFR(E746-A750del)) of 89%. It also gave a remaining binding at 0.1 µM [1] of 70%, a remaining binding at 0.1 µM (FLT4) of 85% and a remaining binding at 0.1 µM (HIPK1) of 66%. For the same molecule, the remaining binding at 0.1 µM (PRKCD) was 100%, the remaining binding at 0.1 µM (PDGFRB) was 51% and the remaining binding at 0.1 µM (MAP3K4) was 100%. It also gave a remaining binding at 0.1 µM (SRC) of 75%, a remaining binding at 0.1 µM (PIK3C2B) of 97% and a remaining binding at 0.1 µM (PCTK3) of 85%. The remaining binding at 0.1 µM (TEC) was 94%, the remaining binding at 0.1 µM (STK39) was 62% and the remaining binding at 0.1 µM (FGFR4) was 97%. The remaining binding at 0.1 µM (SLK) was 70%, the remaining binding at 0.1 µM (CLK1) was 95% and the remaining binding at 0.1 µM (SNARK) was 36%. The remaining binding at 0.1 µM (MKNK2) was 67%.
